For 92 compounds, melting point results are on record in a melting point compilation (Tetko et al.; mined from patent text by program, amines drawn as free bases though some values may be those of a salt).

Where only a bound is given, the exact number is not on record here.

The term melting point denotes the temperature of the solid-liquid transition. Compound `C=CCC1(C(=O)NCCC)c2ccccc2CCc2ccccc21` yielded a melting point of 76 to 79 °C. With `COC(=O)c1ccccc1NC(=O)OC1CC2C(=O)NC3(C(=O)NS(=O)(=O)C4CC4)CC3C=CCOCCCC(NC(=O)OC(C)(C)C)C(=O)N2C1` (configuration not stated) the figure was 147 to 149 °C; with `CCOC(=O)C(=C(c1ccc(F)cc1)c1ccc(F)cc1)c1nnn(CC)n1`, 113 to 114 °C; with `COc1cn(-c2ccncc2)nc(-c2ccnn2-c2ccccc2)c1=O`, 195 to 197 °C. Turning to `CCOC(=O)C(C)(C)CCCCCOc1ccc(-c2csc(NC(=O)NC3CCCCC3)n2)cc1`, the melting point lay within 106 to 108 °C. In turn, `COC(=O)C1CC=C(c2c(-c3ccccc3)[nH]c3ccccc23)CC1` (configuration not stated) had a melting point of 175 to 177 °C. Under `CCCCCCCCCCCCC1=C(OC(C)=O)C(=O)c2c(C)cccc2C1=O` stands 69 to 74 °C; under `O=C(NC(=O)c1c(F)cccc1F)Nc1cncc(C(F)(F)F)c1`, 233 to 235 °C.

`Cc1nnc2ccc(-c3cccc(N(C)C(=O)C4CCC4)c3)nn12` gave a melting point of 171 to 173 °C. `COc1ccc2c(c1)CC(=O)c1cc(C(C)C(N)=O)ccc1S2` (configuration not stated) yielded a melting point of 186 to 188 °C. On to `Cn1nnn(-c2c(Cl)ccc(C(=O)O)c2Cl)c1=O`, for which the melting point lay in the range of 221 to 225 °C. For the compound `O=C(O)CCCCCC(c1cc(F)ccc1F)S(=O)(=O)c1ccc(Cl)cc1` (configuration not stated), the melting point lay in the range of 72 to 76 °C. In turn, `O=C(Nc1cccc(C(F)(F)F)c1)Nc1ccc(Oc2ncnc3ccn(CCOCCO)c23)cc1Cl` displayed a melting point of 170 to 174 °C.

`Cc1cc2ncnc(N3CCc4ccc(Cl)cc43)c2cc1C` displayed a melting point of 199 °C. In the case of `C[C@H]1CC[C@H]2C(C)(C)[C@@H](O)CC[C@]23Oc2c(c(O)cc4c2CN(C)C4=O)C[C@]13C`, the melting point fell in the range of 205 to 210 °C. Under `O=C(O)C=CC=Cc1cc(O)c(O)cc1Cl` stands 203 to 206 °C; under `CC(=O)NS(=O)(=O)c1ccc(-c2c(Cl)nc(C(F)(F)F)nc2-c2ccc(S(C)(=O)=O)cc2)cc1`, 230 to 235 °C.

`CC(C)N1Cc2c(-n3c(=O)cc(C(F)(F)F)[nH]c3=O)ccc(Cl)c2C1=O` registered a melting point of over 250 °C. Under `O=C(N1CCNCC1)N1CCC(c2ccncc2)CC1` stands 116 to 117 °C. The compound `CN(CCN(C)c1nc2ccccc2n1Cc1ccc(F)cc1)C(=O)OC(C)(C)C` came in with a melting point of 182 to 185 °C. With `COc1ccc(-c2nc(S)[nH]c2-c2ccncc2)cc1` the figure was 280 °C. With `C=CCN1C(=O)C=C(NC2c3cc4c(cc3C(c3cc(OC)c(O)c(OC)c3)C3C(=O)OCC23)OCO4)C1=O` (configuration not stated) the figure was 180 to 183 °C; with `CC1CC(=O)N(c2ccc(Cl)cc2)C(=O)C1`, 163 to 164 °C.

`NC(=O)OC(=O)C(Cl)(Cl)Cl`: the melting point lay in the range of 183 to 184 °C. With `CC1CCc2nc(N)sc2C1` (configuration not stated) the figure was 98 to 100 °C; with `Cc1coc2ncnc(NCCc3ccc(Cl)cc3)c12`, 140 °C; with `CC1CCCC(C)N1Cc1ccc(N)cc1` (configuration not stated), 112 to 115 °C. With `OC(c1ccccc1)c1cccnn1` (configuration not stated) the figure was 130 to 135 °C; with `CC(Oc1ccc2c(=O)c(-c3cccc(O)c3)coc2c1)C(=O)O` (configuration not stated), 218 to 219 °C. With `Clc1nc(-c2cccnc2)sc1NC1CC1` the figure was 56 to 60 °C; with `Cc1cn2nc(Cl)ccc2n1`, 131 °C; with `COc1c(N)nc(-c2ccc(Cl)c(F)c2F)nc1C(=O)NO`, 192 to 194 °C. Regarding `CCOC(=O)C=Cc1ccc(CCNS(=O)(=O)C=Cc2ccccc2)cc1`, the melting point was 102 to 104 °C. As for `CNC(=O)ON=C1Oc2ccccc2OC1(C)C`, the melting point fell in the range of 174 to 176 °C.

Turning to `CNc1nc(-c2ccc3c(c2)CCC3)c(-c2cccnc2)s1`, the melting point fell in the range of 169 to 170 °C. Under `NC(=O)c1c(C(=O)O)cnn1-c1cccc(Cl)c1` stands 223 to 225 °C; under `CC(=O)SC(C(=O)c1ccccc1)C(C)C(=O)N1C(c2cccc(C(F)(F)F)c2)SC[C@H]1C(=O)O` (some centres not stated), 152 to 154 °C; under `N=C(CSc1nc2cc(Cl)ccc2s1)NO`, 155 to 157 °C. With `COC(=O)CC(=O)Cc1cc(F)c(F)cc1F` the figure was 37 to 39 °C; with `O=S1(=O)N(CCBr)c2ccccc2N1c1ccc(Cl)cc1`, 86 to 89 °C.

`COC(=O)Cc1c(C(=O)OC)ccn1CCBr`: the melting point lay in the range of 129 to 130 °C.

For `CN(C(=S)Nc1ccccc1)C1CCN(CCc2c[nH]c3ccccc23)CC1`, the melting point worked out at 194 °C. In turn, `Clc1cccc(N2CCN(c3nc4cccccc-4n3)CC2)c1` yielded a melting point of 217 to 219 °C. Compound `COc1ccc2c(-c3cccc(F)c3)noc2c1Cl` registered a melting point of 149 to 150 °C. With `CCOC(=O)C1=C(C(F)(F)F)Nc2n[nH]cc2C1c1cccs1` (configuration not stated) the figure was 157 to 161 °C; with `COC(=O)c1ccc(Cn2ncc3ccc(NC(=O)OC4CCCC4)cc32)c(OC)c1`, 150 to 151 °C; with `Clc1ccc(-n2c(Cn3ccnc3)nc3ccccc32)cc1`, 121 to 122 °C. Under `COc1cc(OC)nc(-n2c(N)nc3cc(C)ccc32)n1` stands over 300 °C; under `CC(C(N)=O)c1ccc2c(c1)Oc1ccccc1CC2=O` (configuration not stated), 159 to 160 °C; under `CS(=O)(=O)N(Cc1cccnc1)c1ccccc1`, 104 to 105 °C. Under `CC(C)(C)OC(=O)CC1CC(C=O)OC(C)(C)O1` (configuration not stated) stands 71 to 73 °C; under `CSCCCCCC=C(NC(=O)C1CC1(C)C)C(=O)O` (configuration not stated), 82 to 84 °C; under `COc1ccc2c(c1)C(=O)c1c-2cnc2ccccc12`, 195 to 196 °C. `O=C(CCC(=O)Oc1cc(O)cc(O)c1)Oc1cc(O)cc(O)c1` had a melting point of 213 to 217 °C. With `CC(C)(C)[Si](OCCOc1ccc(N)cn1)(c1ccccc1)c1ccccc1` the figure was 59 to 61 °C; with `O=C(CCCOc1ccc(-c2ccc(Cl)cc2)cc1)NO`, 168 to 170 °C; with `C=CCCCCNC(=O)c1cnc(OCC(O)CNC(C)(C)C)s1` (configuration not stated), 80 to 81 °C. Under `Oc1cccc(OCCCCOc2cccc(O)c2)c1` stands 103 to 106 °C. With `CCCc1c2c(nc3cc(F)c(F)cc13)-c1cc3c(c(=O)n1C2)COC(=O)CC3(O)CC` (configuration not stated) the figure was 250 °C. For the compound `CN1CCCN(c2cc3ccccc3c(=O)[nH]2)CC1`, the melting point was 171 to 172 °C. Compound `CCn1cc(C(=O)O)c(=O)c2cc(Cl)c(N3CCOCC3)cc21` came in with a melting point of 266 °C.

In the case of `COc1cccc2c1-c1c(OC(C)C)cccc1C2=O`, the melting point was in the range of 118 to 120 °C.

`COC(=O)C(=C(C)O)N1C(=O)C(N2C(=O)c3ccccc3C2=O)C1SC(C)=O` (configuration not stated) yielded a melting point of 178 to 183 °C. `CCOC(=O)c1nc(C(=O)OCC)nc(C(=O)OCC)n1` yielded a melting point of 169 to 170 °C. With `CC(C)Cn1c(CO)c(-c2ccccc2F)c2cc(OCc3ccccc3)ccc2c1=O` the figure was 191 to 192 °C; with `CC1CC(C)(C)c2ccc(O)cc2O1` (configuration not stated), 97 to 98 °C; with `Cn1c([N+](=O)[O-])cnc1-c1cc(C(N)=O)on1`, 235 to 238 °C. With `Cc1cccc(-c2sc(NC(=O)Nc3ccccc3)nc2-c2cc(C)nc(C)c2)c1` the figure was 173 to 174 °C; with `O=C(Nc1ccc(S(=O)(=O)N2CCOCC2)cc1)c1cc(Cl)ccc1[N+](=O)[O-]`, 243 to 245 °C. `CCc1cc2c(-c3ccccc3Cl)c(NC(=O)C=Cc3cc(OC)c(OC(C)=O)c(OC)c3)cnc2s1` displayed a melting point of 133 to 135 °C. In turn, `O=C(O)C(O)CCCCCc1ccc(Cl)cc1` (configuration not stated) came in with a melting point of 78 to 81 °C.

`COc1ccc(C(=O)N2CCCC2=O)cc1OC(=O)c1ccccc1` had a melting point of 90.5 to 91 °C.

Regarding `CC1(C)SC(c2ccc(O)cc2)NC1C(=O)O` (configuration not stated), the melting point fell in the range of 207 to 209 °C.

Turning to `CC1(C)OCCc2c1[nH]c1ccccc21`, the melting point lay in the range of 142 to 144 °C. With `CCCCc1nc2c(N)nc3ccccc3c2n1CC(C)(C)OCCS(C)(=O)=O` the figure was 196 to 198 °C; with `CC(C)N(C(=S)Nc1ccccc1[N+](=O)[O-])C1CCN(CCc2ccccc2)CC1`, 101 °C. `O=C(Nc1ccc(OCc2ccncc2)c2ccccc12)c1cc(F)cc(OC2CCOCC2)c1`: the melting point lay within 182 to 184 °C.

Turning to `CNC(=O)N1CC(Oc2cc(C(F)(F)F)ccc2F)C1`, the melting point is 93.5 to 95 °C. Regarding `O=C(O)Cc1cccc(-c2onc3ccccc23)c1`, the melting point lay in the range of 143 to 145 °C.

Consider `COc1ccc2c(c1)CCC1C2CCC2(C)C(NCc3ccccc3)CCC12` (configuration not stated), for which the melting point is 102 to 104 °C. Regarding `CCCN(CCC)C(=O)Cc1ccc(OCC(=O)c2ccc(OC)cc2)c([N+](=O)[O-])c1`, the melting point was 95 to 97 °C. `O=C(CN1C(=O)CSC1=O)c1ccc(Cl)cc1` returned a melting point of 122 to 124 °C. As to `Cc1c(C(=O)O)cnn1CCO`, the melting point stood at 203 °C.

In turn, `CN=C1SCN(C(C)(C)C)C(=O)N1C` had a melting point of 51 to 52 °C. Under `O=C1c2cc(F)ccc2-n2c1nc1ccccc1c2=O` stands 273 to 276 °C.

In turn, `CCCCc1nc(Cl)c(CN2CCN(c3ccccc3OC)CC2)n1Cc1ccc(-c2ccccc2-c2nnn[nH]2)cc1` registered a melting point of 154 to 158 °C.

`COCCO[C@@H]1c2ccn3c(CO)c(C)nc3c2N[C@H](c2ccccc2)[C@H]1O`: the melting point was 180 to 183 °C. For the compound `O[C@H](COc1cccc2cc(-c3nnc(-c4ccccc4)o3)oc12)CN1CCC(c2ccc3ccccc3c2)CC1`, the melting point fell in the range of 78 to 80 °C.

`O=C1c2ccccc2CN1CCCCSc1ccncc1` came in with a melting point of 57 to 58 °C. With `CC(C)(C)COc1c(-c2ccc(S(N)(=O)=O)cc2)cnn(CC(F)(F)F)c1=O` the figure was 123 to 124 °C.

Consider `CC(C)(C)C(=O)NCCCOc1ccncc1`, for which the melting point was 71.5 to 72.5 °C. `C#Cc1sc(C2=NOC(c3cc(Cl)cc(Cl)c3)(C(F)(F)F)C2)cc1C` (configuration not stated) yielded a melting point of 105 to 107 °C.
